From patent US10300023B1, “Stabilized assembled nanostructures for delivery of encapsulated agents” (The Brigham and Women's Hospital, Inc., priority 2015, dated 2019)

How the values were obtained:
[1] = system: PC3 (PC-3) human prostate cancer cells; test: In vitro cytotoxicity (% metabolic activity) in PC3 cells; assay type: cell-based; details: n = 3
Description: (§1) Nanofiber cytotoxicity was studied in vitro in prostate cancer cells—PC3 and LNCaP.
(§2) FIG. 8A is a line graph showing the % metabolic activity of PC3 (PC-3) human prostate cancer cells incubated with a range of concentrations (μM) of a vitamin C solution for 48 hours (“Vit C 48 h”, black square) or of stabilized vitamin C-derived particles for 24 hours or 48 hours (“Vit C particles 24 h” (grey square) and “Vit C particles 48 h” (triangle), respectively). FIG. 8B is a line graph showing the % metabolic activity of LNCaP androgen-sensitive human prostate adenocarcinoma cells incubated with Vit C for 48 hours (black squares), Vit C particles for 24 hours (grey squares), and Vit C particles for 48 hours (triangles).
(§3) FIGS. 9A and 9B are line graphs showing the % metabolic activity of PC3 cells (FIG. 9A) and the % metabolic activity of LNCaP cells (FIG. 9B) when incubated with a range of concentrations (μM) of stabilized vitamin C-derived particles (“Vit C particles”, grey squares), of free docetaxel (“free DTX”, diamonds), or of stabilized vitamin C-derived particles encapsulating docetaxel (“DTX loaded Vit C particles”, triangles).

[2] = system: LNCaP androgen-sensitive human prostate adenocarcinoma cells; test: In vitro cytotoxicity (% metabolic activity) in LNCaP cells; assay type: cell-based; details: n = 3
Description: as §1, §2, §3

SMILES: CC(=O)O[C@@]12CO[C@@H]1C[C@H](O)[C@@]1(C)C(=O)[C@H](O)C3=C(C)[C@@H](OC(=O)[C@H](O)[C@@H](NC(=O)OC(C)(C)C)c4ccccc4)C[C@@](O)([C@@H](OC(=O)c4ccccc4)[C@H]21)C3(C)C [Free DTX, docetaxel]
- IC50 [1]: 620 nM
- IC50 [2]: 3600 nM
